Source: PMC8929351 (Pharmacology Research & Perspectives, 2022)
Entries after “also recorded” stand apart in the source; their conditions may differ.

What was measured:
rat µ receptor [1] = details: cited from earlier work
[2] = molecular target: human µ receptor wild‐type (WT) (Homo sapiens, UniProt P35372); test: cell-based; format: cell-based
human µ receptor N40D = human µ receptor N40D (Homo sapiens, UniProt P35372, N40D); test: cell-based; format: cell-based
human µ receptor = details: GTPγS binding; cited from earlier work
[3] = test system: noradrenaline transporter; details: read-out: EC50 to inhibit noradrenaline transporter; LC neurons; cited from earlier work
GIRK channels = details: 100 µM; cells clamped at −60 mV; cited from earlier work
[4] = tapentadol‐related fatality; cited from earlier work
rat µ receptor [5] = details: cited from earlier work; remark: listed apart in the source
OPRM1 knock‐out mice = details: dose highly effective in wild‐type mouse; cited from earlier work
Somatostatin receptors = format: cell-based, Mouse; details: 30 µM tapentadol; SRIF 100 nM; AtT20 WT cells
human µ receptor A6V = human µ receptor A6V (Homo sapiens, UniProt P35372, A6V); test: cell-based; format: cell-based
GIRK1/2 channel = molecular target: T1, GIRK1/2 channel (Mus musculus, UniProt P48542+P63250); format: cell-based; details: 30 µM tapentadol, AtT20 WT cells
T1 sequence (P63250 1-501): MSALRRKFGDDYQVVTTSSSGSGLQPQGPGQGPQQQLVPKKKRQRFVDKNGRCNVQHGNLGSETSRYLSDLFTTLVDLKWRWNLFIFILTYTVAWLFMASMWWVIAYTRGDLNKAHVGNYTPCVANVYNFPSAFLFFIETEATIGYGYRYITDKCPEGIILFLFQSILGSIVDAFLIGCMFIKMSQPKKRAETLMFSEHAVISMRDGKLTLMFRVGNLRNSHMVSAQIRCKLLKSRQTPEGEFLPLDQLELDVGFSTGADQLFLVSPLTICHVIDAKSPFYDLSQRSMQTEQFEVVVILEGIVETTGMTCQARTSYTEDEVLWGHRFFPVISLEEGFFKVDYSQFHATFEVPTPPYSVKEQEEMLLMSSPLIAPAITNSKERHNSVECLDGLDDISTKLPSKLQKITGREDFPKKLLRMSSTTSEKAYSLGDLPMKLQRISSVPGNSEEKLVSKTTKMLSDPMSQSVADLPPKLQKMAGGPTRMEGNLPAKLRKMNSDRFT
T1 sequence (P48542 1-425): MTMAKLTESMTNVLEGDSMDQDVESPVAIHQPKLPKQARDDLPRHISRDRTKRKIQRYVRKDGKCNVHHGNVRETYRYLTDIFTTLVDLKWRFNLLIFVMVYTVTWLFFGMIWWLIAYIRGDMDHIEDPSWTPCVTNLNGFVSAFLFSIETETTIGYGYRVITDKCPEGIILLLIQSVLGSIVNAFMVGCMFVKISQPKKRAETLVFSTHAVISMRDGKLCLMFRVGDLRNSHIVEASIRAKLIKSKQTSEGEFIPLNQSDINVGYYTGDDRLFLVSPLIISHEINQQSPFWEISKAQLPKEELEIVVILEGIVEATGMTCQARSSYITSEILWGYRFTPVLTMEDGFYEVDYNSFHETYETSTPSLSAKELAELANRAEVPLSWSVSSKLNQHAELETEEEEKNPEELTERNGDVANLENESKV

Sequence of human µ receptor wild‐type (WT) (P35372 whole entry): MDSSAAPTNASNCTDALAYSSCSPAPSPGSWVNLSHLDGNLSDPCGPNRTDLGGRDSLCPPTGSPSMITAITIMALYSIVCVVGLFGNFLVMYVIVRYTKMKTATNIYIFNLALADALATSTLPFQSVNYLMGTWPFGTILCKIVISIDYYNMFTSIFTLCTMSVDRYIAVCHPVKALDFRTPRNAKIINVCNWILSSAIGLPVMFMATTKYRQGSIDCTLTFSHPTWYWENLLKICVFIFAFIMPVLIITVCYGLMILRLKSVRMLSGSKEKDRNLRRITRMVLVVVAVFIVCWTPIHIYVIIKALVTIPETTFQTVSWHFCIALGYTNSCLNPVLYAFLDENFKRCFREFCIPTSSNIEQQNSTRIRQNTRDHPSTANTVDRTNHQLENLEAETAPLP
Sequence of human µ receptor N40D (P35372 whole entry N40D): as the sequence (P35372 whole entry) above, with N40D counted along it
Sequence of human µ receptor A6V (P35372 whole entry A6V): as the sequence (P35372 whole entry) above, with A6V counted along it

C[C@@H](NC(=O)[C@@H](N)Cc1ccc(O)cc1)C(=O)NCC(=O)N(C)[C@@H](Cc1ccccc1)C(=O)NCCO [DAMGO, Tyr‐D‐Ala‐Gly‐N‐MePhe‐Gly‐ol acetate]
Operational tau (rat µ receptor [1]): 28.5 ± 1.1
effect to activate the GIRK channel in variants compared to WT [2]: not different

COc1ccc2c3c1O[C@H]1C(=O)CC[C@@]4(O)[C@@H](C2)N(C)CC[C@]314 [Oxycodone]
Operational tau (rat µ receptor [1]): 5.1 ± 0.2
Operational tau [2]: 13.9 ± 2

CC[C@@H](c1cccc(O)c1)[C@@H](C)CN(C)C [Tapentadol]
Kd (human µ receptor N40D): 3.98 µM
Relative tau (intrinsic efficacy relative to DAMGO) (human µ receptor N40D; N40D, AtT20 cells, operational model, β‐CNA 100 nM 20 min, mean ± SEM): 0.05 ± 0.02
in vitro efficacy (human µ receptor): same efficacy as morphine
EC50 [3]: 2.3 µM
blockage of GIRK channels (GIRK channels): no blockage of GIRK channels
serum concentration [4]: 3.5 to 25 µM
intrinsic activity (rat µ receptor [5]; GIRK currents, rat LC neurons): lower intrinsic activity than morphine and oxycodone
EC50 (rat µ receptor [5]; read-out: EC50 to activate µ receptor, LC neurons): 1.8 µM
analgesic effect (OPRM1 knock‐out mice): reduced yet significant analgesia
effect on response of SRIF (Somatostatin receptors): significant reduction; also recorded: decreased the maximal response
Kd (human µ receptor A6V): 4.47 µM
Relative tau (intrinsic efficacy relative to DAMGO) (human µ receptor A6V; A6V, AtT20 cells, operational model, β‐CNA 100 nM 20 min, mean ± SEM): 0.04 ± 0.01
effect on response of ML297 (GIRK1/2 channel): significant reduction; also recorded: decreased the maximal response
response at the highest concentration compared with plateau ([2]; 30 µM, undepleted conditions): smaller response
Relative tau (intrinsic efficacy relative to DAMGO) ([2]; WT, AtT20 cells, operational model, β‐CNA 100 nM 20 min, mean ± SEM): 0.05 ± 0.01
Kd ([2]; pKA, WT, operational (functional) affinity): 3.98 µM
